Reference: patent publication US7265103B2, “Substituted amino isoxazoline derivatives and their use as anti-depressants” (Janssen Pharmaceutica NV., priority 2002, dated 2007)

Experiments:
hα2A receptor = molecular target: T1, hα2A receptor (Homo sapiens, UniProt P08913); assay: Radioligand binding experiment for α2A-adrenergic receptor ([3H]-raulwolscine); conditions: CHO cell membranes with human α2A receptor, [3H]raulwolscine 1 nM; read-out: pIC50 α2A (converted)
T1 construct: expressed in transfected cells; host or cells: CHO cells
T1 sequence (P08913 1-465): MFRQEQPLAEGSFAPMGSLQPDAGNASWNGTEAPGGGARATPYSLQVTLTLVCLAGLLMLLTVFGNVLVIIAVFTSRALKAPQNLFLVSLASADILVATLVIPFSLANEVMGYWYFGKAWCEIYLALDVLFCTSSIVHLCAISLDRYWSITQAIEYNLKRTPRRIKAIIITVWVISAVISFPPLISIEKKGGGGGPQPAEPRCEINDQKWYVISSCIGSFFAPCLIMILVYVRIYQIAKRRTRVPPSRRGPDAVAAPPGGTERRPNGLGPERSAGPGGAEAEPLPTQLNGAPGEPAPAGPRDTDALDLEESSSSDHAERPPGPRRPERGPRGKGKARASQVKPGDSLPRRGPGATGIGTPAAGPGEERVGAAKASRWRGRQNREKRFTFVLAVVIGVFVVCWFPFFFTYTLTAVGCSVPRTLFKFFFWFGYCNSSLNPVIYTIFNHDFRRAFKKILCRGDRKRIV
Experimental: (§1) The interaction of the compounds of Formula (I) with hα2-receptors and h5-HT-transporters was assessed in in vitro radioligand binding experiments. In general, a low concentration of a radioligand with a high binding affinity for a particular receptor or transporter is incubated with a sample of a tissue preparation enriched in a particular receptor or transporter or with a preparation of cells expressing cloned human receptors in a buffered medium. During the incubation, the radioligand binds to the receptor or transporter. When equilibrium of binding is reached, the receptor bound radioactivity is separated from the non-bound radioactivity, and the receptor- or transporter-bound activity is counted. The interaction of the test compounds with the receptor is assessed in competition binding experiments. Various concentrations of the test compound are added to the incubation mixture containing the receptor- or transporter preparation and the radioligand. The test compound in proportion to its binding affinity and its concentration inhibits binding of the radioligand. The radioligand used for hα2A, hα2B and hα2C receptor binding was [^3H]-raulwolscine and for the h5-HT transporter was [^3H]paroxetine.
(§2) CHO cells, stabile transfected with human adrenergic-α2A-, -α2B or α2C receptor cDNA, were cultured in Dulbecco's Modified Eagle's Medium (DMEM)/Nutrient mixture Ham's F12 (ratio 1:1)(Gibco, Gent-Belgium) supplemented with 10% heat inactivated fetal calf serum (Life Technologies, Merelbeke-Belgium) and antibiotics (100 IU/ml penicillin G, 100 μg/ml streptomycin sulphate, 110 μg/ml pyruvic acid and 100 μg/ml L-glutamine). One day before collection, cells were induced with 5 mM sodiumbutyrate. Upon 80-90% of confluence, cells were scraped in phosphate buffered saline without Ca^2+ and Mg^2+ and collected by centrifugation at 1500×g for 10 min. The cells were homogenised in Tris-HCl 50 mM using an Ultraturrax homogenizer and centrifuged for 10 min at 23,500×g. The pellet was washed once by resuspension and rehomogenization and the final pellet was resuspended in Tris-HCl, divided in 1 ml aliquots and stored at −70° C.
(§3) Membranes were thawed and re-homogenized in incubation buffer (glycylglycine 25 mM, pH 8.0). In a total volume of 500 μl, 2-10 μg protein was incubated with [^3H]raulwolscine (NET-722) (New England Nuclear, USA) (1 nM final concentration) with or without competitor for 60 min at 25° C. followed by rapid filtration over GF/B filter using a Filtermatel 96 harvester (Packard, Meriden, Conn.). Filters were rinsed extensively with ice-cold rinsing buffer (Tris-HCl 50 mM pH 7.4). Filter-bound radioactivity was determined by scintillation counting in a Topcount (Packard, Meriden, Conn.) and results were expressed as counts per minute (cpm). Non-specific binding was determined in the presence of 1 μM oxymetazoline for hα2A- and hα2B receptors and 1 μM spiroxatrine for hα2C receptors.
(§4) Data from assays in the presence of compound were calculated as a percentage of total binding measured in the absence of test compound. Inhibition curves, plotting percent of total binding versus the log value of the concentration of the test compound, were automatically generated, and sigmoidal inhibition curves were fitted using non-linear regression. The pIC50 values of test compounds were derived from individual curves.

hα2C receptor = molecular target: T2, hα2C receptor (Homo sapiens, UniProt P18825); assay: Radioligand binding experiment for α2C-adrenergic receptor ([3H]-raulwolscine); conditions: CHO cell membranes with human α2C receptor, [3H]raulwolscine 1 nM; read-out: pIC50 α2C (converted)
T2 construct: expressed in transfected cells; host or cells: CHO cells
T2 sequence (P18825 1-462): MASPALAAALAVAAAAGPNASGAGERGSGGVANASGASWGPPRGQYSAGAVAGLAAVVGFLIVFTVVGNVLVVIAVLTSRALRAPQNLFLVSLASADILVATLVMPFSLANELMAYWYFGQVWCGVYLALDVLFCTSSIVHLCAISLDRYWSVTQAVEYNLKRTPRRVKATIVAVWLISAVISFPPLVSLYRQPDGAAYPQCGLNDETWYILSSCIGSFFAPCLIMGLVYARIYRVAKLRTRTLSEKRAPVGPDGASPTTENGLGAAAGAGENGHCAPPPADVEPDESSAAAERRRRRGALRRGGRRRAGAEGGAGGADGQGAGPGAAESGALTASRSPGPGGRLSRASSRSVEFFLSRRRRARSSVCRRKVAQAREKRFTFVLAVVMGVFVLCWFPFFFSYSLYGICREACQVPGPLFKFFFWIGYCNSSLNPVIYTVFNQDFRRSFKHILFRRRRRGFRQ
Experimental: as §1, §2, §3, §4

h5-HT transporter = molecular target: T3, h5-HT transporter (Homo sapiens, UniProt P31645); assay: Radioligand binding experiment for 5-HT transporter ([3H]paroxetine); conditions: human platelet membranes, [3H]paroxetine 0.5 nM
T3 construct: Human platelet membranes (Oceanix Biosciences Corporation, Hanover, Md., USA) were thawed; tissue Oceanix Biosciences Corporation; host or cells: human platelet membranes
Experimental: as §1
Human platelet membranes (Oceanix Biosciences Corporation, Hanover, Md., USA) were thawed, diluted in buffer (Tris-HCl 50 mM, 120 mM NaCl and 5 mM KCl) and quickly (max 3 s) homogenised with an Ultraturrax homogenizer. In a total volume of 250 μL, 50-100 μg protein was incubated with [^3H]paroxetine (NET-869) (New England Nuclear, USA) (0.5 nM final concentration) with or without competitor for 60 min at 25° C. Incubation was stopped by rapid filtration of the incubation mixture over GF/B filters, pre-wetted with 0.1% polyethyleneamine, using a Filtermatel 96 harvester (Packard, Meriden, Conn.). Filters were rinsed extensively with ice-cold buffer and radioactivity on the filters was counted in a Topcount liquid scintillation counter (Packard, Meriden, Conn.). Data were expressed as cpm. Imipramine (at 1 μM final concentration) was used to determine the non-specific binding.
as §4

T3 sequence (P31645 whole entry): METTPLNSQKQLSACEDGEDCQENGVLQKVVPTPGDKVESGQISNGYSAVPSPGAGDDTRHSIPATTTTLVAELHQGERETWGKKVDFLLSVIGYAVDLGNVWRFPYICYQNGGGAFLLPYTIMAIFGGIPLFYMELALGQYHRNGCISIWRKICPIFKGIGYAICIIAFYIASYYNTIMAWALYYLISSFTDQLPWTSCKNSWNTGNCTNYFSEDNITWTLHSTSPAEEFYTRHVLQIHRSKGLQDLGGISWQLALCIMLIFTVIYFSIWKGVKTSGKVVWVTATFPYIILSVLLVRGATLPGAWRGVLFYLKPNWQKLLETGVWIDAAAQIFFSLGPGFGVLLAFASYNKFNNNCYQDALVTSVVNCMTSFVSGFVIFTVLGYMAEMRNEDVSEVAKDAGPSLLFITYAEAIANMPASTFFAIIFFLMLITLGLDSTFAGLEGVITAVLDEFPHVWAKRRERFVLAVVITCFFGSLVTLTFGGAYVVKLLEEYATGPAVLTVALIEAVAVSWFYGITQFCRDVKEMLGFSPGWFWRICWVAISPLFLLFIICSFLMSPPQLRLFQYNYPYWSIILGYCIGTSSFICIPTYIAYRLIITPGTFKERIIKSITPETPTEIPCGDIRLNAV

Structure (SMILES) | IC50 (hα2A receptor) [nM] | IC50 (hα2C receptor) [nM] | IC50 (h5-HT transporter) [nM]
COc1cc2c(cc1NCCN)OCC1C2=NOC1CN1CCN(CC(C)=Cc2ccc(F)cc2)CC1 (stereo not drawn) [Compound 97] | 31.6 | 6.31 | 15.8
CC(=Cc1ccc(F)cc1)CN1CCN(CC2ON=C3c4ccc(N(C)CCN)cc4OCC32)CC1 (stereo not drawn) [Compound 19] | 12.6 | 2.51 | 10
COc1cc2c(cc1N1CCC1)OCC1C2=NOC1CN1CCN(CC(C)=Cc2ccc(F)cc2)CC1 (stereo not drawn) [Compound 102] | 20 | 15.8 | 50.1
CC(=Cc1ccc(F)cc1)CN1CCN(CC2ON=C3c4ccc(NCCO)cc4OCC32)CC1 (stereo not drawn) [Compound 37] | 3.16 | 5.01 | 63.1
COc1cc2c(cc1NC(=O)C1CC1)OCC1C2=NOC1CN1CCN(CC(C)=Cc2ccccc2)CC1 (stereo not drawn) [Compound 52] | 3.98 | 0.631 | 20
CC(=Cc1ccc(F)cc1)CN1CCN(CC2ON=C3c4ccc(N5CCC(C)C5=O)cc4OCC32)CC1 (stereo not drawn) [Compound 139] | 15.8 | 7.94 | 126
CCCC(C)C(=O)Nc1cc2c(cc1OC)C1=NOC(CN3CCN(CC(C)=Cc4ccc(F)cc4)CC3)C1CO2 (stereo not drawn) [Compound 113] | 79.4 | 39.8 | 63.1
CC(=Cc1ccc(F)cc1)CN1CCN(CC2ON=C3c4ccc(NC(C)CO)cc4OCC32)CC1 (stereo not drawn) [Compound 134] | 63.1 | 126 | 126
COc1cc2c(cc1NCC1CC1C)OCC1C2=NOC1CN1CCN(CC(C)=Cc2ccc(F)cc2)CC1 (stereo not drawn) [Compound 126] | 63.1 | 126 | 126
CNc1cc2c(cc1OC)C1=NOC(CN3CCN(CC(C)=Cc4cccc(F)c4)CC3)C1CO2 (stereo not drawn) [Compound 17] | 7.94 | 2 | 12.6
CC(=Cc1cccc(F)c1)CN1CCN(CC2ON=C3c4ccc(N(C)CCN(C)C)cc4OCC32)CC1 (stereo not drawn) [Compound 22] | 1.58 | 1.26 | 1.58
COc1cc2c(cc1N1CCOCC1)OCC1C2=NOC1CN1CCN(CC(C)=Cc2cccc(F)c2)CC1 (stereo not drawn) [Compound 83] | 7.94 | 2.51 | 15.8
CC(=Cc1ccc(F)cc1)CN1CCN(CC2ON=C3c4ccc(N(C)CCNC(C)C(C)C)cc4OCC32)CC1 (stereo not drawn) [Compound 110] | 39.8 | 5.01 | 5.01
CCC(CC)Nc1cc2c(cc1OC)C1=NOC(CN3CCN(CC(C)=Cc4ccc(F)cc4)CC3)C1CO2 (stereo not drawn) [Compound 98] | 126 | 100 | 251
CCC(C)Nc1cc2c(cc1OC)C1=NOC(CN3CCN(CC(C)=Cc4ccc(F)cc4)CC3)C1CO2 (stereo not drawn) [Compound 99] | 50.1 | 50.1 | 158
CCNc1ccc2c(c1)OCC1C2=NOC1CN1CCN(CC(C)=Cc2ccccc2)CC1 (stereo not drawn) [Compound 18] | 6.31 | 1.26 | 50.1
CC(=Cc1ccc(F)cc1)CN1CCN(CC2ON=C3c4ccc(N5CCCCCC5)cc4OCC32)CC1 (stereo not drawn) [Compound 125] | 200 | 158 | 158
COc1cc2c(cc1N(C)CCO)OCC1C2=NOC1CN1CCN(CC(C)=Cc2ccc(F)cc2)CC1 (stereo not drawn) [Compound 39] | 50.1 | 10 | 79.4
CCC(C)Nc1ccc2c(c1)OCC1C2=NOC1CN1CCN(CC(C)=Cc2ccc(F)cc2)CC1 (stereo not drawn) [Compound 131] | 158 | 50.1 | 63.1
CC(=Cc1ccc(F)cc1)CN1CCN(CC2ON=C3c4ccc(N5CC=CCC5)cc4OCC32)CC1 (stereo not drawn) [Compound 135] | 39.8 | 25.1 | 79.4
COc1cc2c(cc1NCC1(C)CC1)OCC1C2=NOC1CN1CCN(CC(C)=Cc2ccc(F)cc2)CC1 (stereo not drawn) [Compound 128] | 200 | 200 | 158
CC(=Cc1ccc(F)cc1)CN1CCN(CC2ON=C3c4ccc(NCC5CC5)cc4OCC32)CC1 (stereo not drawn) [Compound 130] | 126 | 25.1 | 126
CCNC(=O)Nc1ccc2c(c1)OCC1C2=NOC1CN1CCN(CC(C)=Cc2ccccc2)CC1 (stereo not drawn) [Compound 59] | 7.94 | 1.26 | 10
CC(=Cc1ccc(F)cc1)CN1CCN(CC2ON=C3c4ccc(N5CCC5=O)cc4OCC32)CC1 (stereo not drawn) [Compound 69] | 3.16 | 1.26 | 20
COc1cc2c(cc1N(C)CCO)OCC1C2=NOC1CN1CCN(CC(C)=Cc2ccccc2)CC1 (stereo not drawn) [Compound 32] | 3.98 | 0.794 | 20
CCC(C)(C)NCCN(C)c1ccc2c(c1)OCC1C2=NOC1CN1CCN(CC(C)=Cc2ccc(F)cc2)CC1 (stereo not drawn) [Compound 120] | 39.8 | 6.31 | 2.51
CCN(CC)CCN(C)c1ccc2c(c1)OCC1C2=NOC1CN1CCN(CC(C)=Cc2ccc(F)cc2)CC1 (stereo not drawn) [Compound 25] | 6.31 | 0.398 | 7.94
COc1cc2c(cc1NC(=O)C1CCC1)OCC1C2=NOC1CN1CCN(CC(C)=Cc2ccc(F)cc2)CC1 (stereo not drawn) [Compound 115] | 39.8 | 39.8 | 25.1
COc1cc2c(cc1N1CCC1=O)OCC1C2=NOC1CN1CCN(CC(C)=Cc2ccc(F)cc2)CC1 (stereo not drawn) [Compound 107] | 7.94 | 10 | 50.1
CC(=Cc1ccc(F)cc1)CN1CCN(CC2ON=C3c4ccc(NCC(C)O)cc4OCC32)CC1 (stereo not drawn) [Compound 132] | 25.1 | 31.6 | 63.1
